Reference: BindingDB's records for doi:10.1046/j.1471-4159.1994.63020456.x (Syntex Discovery Research, 1994)

Biological target: 5-hydroxytryptamine receptor 7 (Cavia porcellus, UniProt P50407)
Sequence (P50407 whole entry): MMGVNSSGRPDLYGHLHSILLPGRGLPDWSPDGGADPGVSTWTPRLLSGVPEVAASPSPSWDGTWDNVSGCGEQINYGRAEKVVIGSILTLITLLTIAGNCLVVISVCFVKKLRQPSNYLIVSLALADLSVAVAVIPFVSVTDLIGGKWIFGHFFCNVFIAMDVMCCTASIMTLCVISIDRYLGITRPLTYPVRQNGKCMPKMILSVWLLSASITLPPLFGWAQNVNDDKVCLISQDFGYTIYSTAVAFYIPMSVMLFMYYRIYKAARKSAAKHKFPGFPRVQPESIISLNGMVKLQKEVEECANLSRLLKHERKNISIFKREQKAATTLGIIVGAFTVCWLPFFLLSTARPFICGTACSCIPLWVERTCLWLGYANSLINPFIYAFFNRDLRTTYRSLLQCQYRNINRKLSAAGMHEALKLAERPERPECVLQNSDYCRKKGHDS

Compound | Ki [nM]
CC[C@@H](CO)NC(=O)[C@@H]1C=C2c3cccc4c3c(cn4C)C[C@H]2N(C)C1 | 39.8
CN(C)CCc1c[nH]c2ccc(O)cc12 [3-[2-(dimethylamino)ethyl]indol-5-ol] | 19.9
CNS(=O)(=O)Cc1ccc2[nH]cc(CCN(C)C)c2c1 [Sumax] | 251
O=C(CCCN1CCC2(CC1)C(=O)NCN2c1ccccc1)c1ccc(F)cc1 [8-[4-(4-fluorophenyl)-4-oxidanylidene-butyl]-1-phenyl-1,3,8-triazaspiro[4.5]decan-4-one] | 100
NCCc1c[nH]c2ccc(O)cc12 [[3H]-5-HT] | 1
COc1ccc2[nH]cc(CCN)c2c1 [tryptamine, 5-Methoxy] | 1
CCCN(CCC)C1CCc2cccc(O)c2C1 (configuration not stated) | 50.1
